The results in this text go back to patent publication US6852722B2, “Compositions and methods for stimulating gastrointestinal mobility” (Pfizer Inc., priority 2000, dated 2005).

The test concerns Male CD Sprague-Dawley rats. The experiment in a line: Gastrointestinal transit in rats (51Cr marker: gastric emptying and geometric center). The class given is in vivo, rat. The settings on record: for effect on gastrointestinal transit: 0.1 mg/kg oral; for % Gastric Emptying: 51Cr marker 15 min after dose, killed 20 min later; for % Gastric Emptying / Geometric Center: mean ± SEM; for Geometric Center: stomach = segment 0, intestine segments 1-10; for increase in gastric emptying / increase in geometric center (transit through stomach and small intestine): relative to vehicle. Here is the method:
Male CD Sprague-Dawley rats (175-225 grams) are fitted with tail cups to prevent coprophagy and fasted overnight. The next day the rats are orally given either vehicle (water, 5 ml/kg) or a solution of the test compound in water at doses of 0.1, 0.5, 1 or 5 mg/kg p.o. Fifteen minutes later, the rats are given 1.0 ml of an evaporated milk solution containing 20,000 cpm of ^51Cr as sodium chromate.
The rats are killed 20 minutes after administration of the radioactive marker. The gastroesophageal, pyloric, and ileocecal junctions are ligated, the stomach is removed and the small intestine is divided into ten equal lengths. The stomach and each length of intestine are assayed for radioactivity with a gamma counter. Gastric emptying is determined for each rat by comparing the amount of radioactivity in the intestine relative to the total in the intestine plus stomach. In addition, the geometric center of the distribution of the radioactive marker is used to measure the overall transit rate through the stomach and intestine. Geometric center is calculated as: Σ((fraction of ^51Cr per segment)×(segment number)). For these calculations the stomach is segment number 0 while the ten intestinal segments are designated 1 to 10. Thus, a geometric center of 0.0 would indicate that the entire load of ^51Cr had remained in the stomach.
Results from test compound-treated rats and vehicle-treated rats are compared using one-way ANOVA and Dunnett's test for simultaneous multiple comparisons. The effect of the test compound on gastrointestinal transit in rats is evaluated by measuring gastric emptying and the geometric center of distribution of an orally administered radioactive marker.

Regarding `CN1N=C2CCN(C(=O)[C@@H](COCc3ccccc3)NC(=O)C(C)(C)N)C[C@@]2(Cc2ccccc2)C1=O` [first test compound, 2-amino-N-(2-(3a-(R)-benzyl-2-methyl-3-oxo-2,3,3a,4,6,7-hexahydro-pyrazolo-[4,3-c]pyridin-5-yl)-1-(R)-benzyloxymethyl-2-oxo-ethyl)-isobutyramide], the “effect on gastrointestinal transit” value is recorded as “no effect”. Also, for the setting “0.1 mg/kg p.o.”, the “% Gastric Emptying” value came to 62.5 ± 3.4% and the “Geometric Center” value amounted to 2.82 ± 0.17. Moreover, for the setting “0.5 mg/kg oral”, the “increase in gastric emptying” value is given as 25%; the “increase in geometric center (transit through stomach and small intestine)” value (shortened to “increase in geometric center”) was 39%. Also, where the note is “0.5 mg/kg p.o.”, the “% Gastric Emptying” value was “*79.0 ± 4.2%” and the “Geometric Center” value was “*4.03 ± 0.26”. Also, the “increase in geometric center” value (1 mg/kg oral) is recorded as 67%. Besides, the “increase in gastric emptying” value (1.0 mg/kg oral) is 45%. Besides, for the setting “1 mg/kg p.o.”, the “% Gastric Emptying” value turned out to be 92% and the “Geometric Center” value is “*4.81 ± 0.21”. Under “1 mg/kg p.o., listed as 1st test compound”, the “% Gastric Emptying” value is given as “*91.5 ± 1.6%”. Also, where the note is “5 mg/kg oral”, the “increase in geometric center” value came out at 68%. Further, the “increase in gastric emptying” value (5.0 mg/kg oral) was determined as 49%. For the setting “5 mg/kg p.o.”, the “% Gastric Emptying” value was 94% and the “Geometric Center” value is reported as “*4.85 ± 0.19”. Moreover, for the setting “5 mg/kg p.o., listed as 1st test compound”, the “% Gastric Emptying” value is given as “*93.7 ± 1.4%”.
As for `CC(C)(N)C(=O)N[C@H](COCc1ccc(F)cc1F)C(=O)N1CCC2=NN(CC(F)(F)F)C(=O)[C@]2(Cc2ccccn2)C1` [second test compound], the “effect on gastrointestinal transit” value was “no effect”. For the same compound, under “0.1 mg/kg p.o.”, the “% Gastric Emptying” value amounted to 68.9 ± 3.4% and the “Geometric Center” value worked out at 3.1 ± 0.2. Where the note is “0.5 mg/kg oral”, the “increase in gastric emptying” value worked out at 21%; the “increase in geometric center” value was determined as 37%. Further, where the note is “0.5 mg/kg p.o.”, the “% Gastric Emptying” value is listed as “*79.5 ± 3.6%” and the “Geometric Center” value is listed as “*3.9 ± 0.3”. For the setting “1 mg/kg oral”, the “increase in geometric center” value came out at 50%. In addition, the “increase in gastric emptying” value (1.0 mg/kg oral) was determined as 37%. Besides, under “1 mg/kg p.o.”, the “% Gastric Emptying” value is “*89.9 ± 2.3%” and the “Geometric Center” value is “*4.3 ± 0.2”. In addition, where the note is “5 mg/kg oral”, the “increase in geometric center” value is on record as 42%. For the same compound, the “increase in gastric emptying” value (5.0 mg/kg oral) came to 34%. Further, under “5 mg/kg p.o.”, the “% Gastric Emptying” value is “*88.3 ± 2.4%” and the “Geometric Center” value was “*4.1 ± 0.2”. Besides, the “gastric emptying and transport through the upper GI tract” value (doses of 0.5, 1 and 5 mg/kg oral) was “increased”.
